Experimental data from PMC9715707, “Identification of a novel peptide ligand for the cancer-specific receptor mutation EGFRvIII using high-throughput sequencing of phage-selected peptides” (Scientific Reports, 2022).
Entries after “also recorded” stand apart in the source; their conditions may differ. Where no end group is shown, it is not given here. The star is where a group is joined. FITC = O=C1OC2(c3ccc(O)cc3Oc3cc(O)ccc32)c2ccc(NC(=S)*)cc21; Ahx = NCCCCCC(=O)O

Columns and labels:
EGFRvIII = molecular target: T1, EGFRvIII (Homo sapiens, UniProt P00533, DELINS30-297G); assay: Microscale thermophoresis, EGFRvIII in solution; format: binding; details: read-out: Kd for EGFRvIII (MST, estimated)
T1 construct: using purified and active extracellular domain of the EGFRvIII protein; purchased Sino Biological 29662-H08B

CLTH/EGFR WT cells [1] = assay: Flow cytometry cellular binding of FITC-Ahx-peptides, EGFR WT cells; format: cell-based, human; details: 10 µM FITC-Ahx-peptide, 20 min at RT, 0.2% DMSO, MFI minus blank cells divided by spectrofluorometer correction factor
Protocol: (§1) Flow cytometry analysis was also performed to quantitatively analyze the binding affinity of the synthetized peptides to the different cell types. Briefly, 293T, CLTH/EGFR WT and CLTH/EGFRvIII cells (100,000 cells, 500 µL) were plated in 24-well plates and incubated overnight at 37 °C in a humidified atmosphere containing 5% CO2 overnight. The next day, cells were treated with FITC-Ahx-peptides using a stock solution in pure DMSO at 5 mM to reach a final concentration of 1, 5 or 10 µM (final percentage of DMSO of 0.2%). Plates were incubated for 20 min at RT. Cells were detached from the plates by a PBS wash, transferred to FACS tubes and washed two times with 4 mL of PBS. Cells were stained with LIVE/DEAD™ Fixable Near-IR Dead Cell Stain Kit (Thermofisher) as a viability marker. Cells were analyzed by flow cytometry on a MACSQuant Analyser 16 (Miltenyi Biotec) using the MACS Quantify software to acquire and process the data. LIVE/DEAD™ Fixable dye was excited at 640 nm and fluorescence was collected with the 785/62 nm filter. FITC was excited at 488 nm and fluorescence was collected with the 525/50 nm filter. Viable cells were gated, FITC fluorescence intensity was recorded and the mean fluorescence intensity (MFI) was measured. MFI values were then normalized by subtracting MFI from blank cells and dividing by the correction factor determined using a spectrofluorometer.
Since FITC fluorescence can be impacted by the nature of the amino acids in the peptide sequence and since the conjugation rate of FITC in the peptide synthesis can fluctuate, it was needed to measure a correction factor according to the fluorescence intensity of each peptide. As flow cytometry cannot analyze fluorescence of small molecules, a spectrofluorometer was used in similar conditions (excitation and emission) to the flow cytometry conditions. […] Fluorescence intensities at 525 nm of the FITC-Ahx-peptides in PBS were measured using a Varioskan plate reader (Thermo Scientific) and the SkanIt Software 5.0. […] Linear regressions were determined for each peptide. […]

293T cells [2] = assay: Flow cytometry cellular binding of FITC-Ahx-peptides, 293T cells; format: cell-based, human; details: 20 min at RT; for Normalized MFI at 10 µM, 293T: 293T cells (negative control), 10 µM FITC-Ahx-peptide, 0.2% DMSO, MFI minus blank cells divided by spectrofluorometer correction factor
Protocol: as §1
Since FITC fluorescence can be impacted by the nature of the amino acids in the peptide sequence and since the conjugation rate of FITC in the peptide synthesis can fluctuate, it was needed to measure a correction factor according to the fluorescence intensity of each peptide. As flow cytometry cannot analyze fluorescence of small molecules, a spectrofluorometer was used in similar conditions (excitation and emission) to the flow cytometry conditions. Experiments were performed by the flow cytometry core facility at Institut Mondor de Recherche Biomédical (IMRB U955, France). Fluorescence intensities at 525 nm of the FITC-Ahx-peptides in PBS were measured using a Varioskan plate reader (Thermo Scientific) and the SkanIt Software 5.0. Samples with concentrations between at 0.625, 1.25, 2.5, 5, 10 and 20 µM were prepared in triplicates using stock solutions of peptides in DMSO at 5 mM. Samples (100 µL) were analyzed in a 96-well plate using the following conditions: temperature of 25 °C, excitation wavelength at 490 nm, excitation bandwidth of 5 nm, emission wavelength at 525 nm, by step of 1 nm, measurement time 100 ms, and upper lens. Linear regressions were determined for each peptide. The correction factor was determined by dividing each slope by the arbitrary value 100 and was used to normalize the MFI obtained by flow cytometry.

CLTH/EGFRvIII cells [3] = assay: Flow cytometry binding of phage-displayed peptides, EGFRvIII cells; format: cell-based, human; details: phage-displayed peptide (M13), ~10^10 phages pre-absorbed on 293T cells, 1 h at 4 °C; anti-M13_biotin + anti-biotin_PE vs secondary-only
Protocol: (§2) Prior to being tested with the selected phages or peptides, each cell line was incubated with different commercial antibodies to confirm their phenotype (Fig. S3). A monoclonal anti-EGFR WT antibody (Life Technologies) and an anti-EGFRvIII primary antibody (Millipore) were used in flow cytometry experiments to evaluate the expression of EGFR WT and EGFRvIII receptors on CLTH/EGFR WT cells and CLTH/EGFRvIII cells respectively. Anti-IgG1 conjugated to phycoerythrin (PE) (Miltenyi Biotec) was used as a secondary antibody to read the fluorescence of PE. 293T cells were tested as a negative control. A phage-free control experiment was also performed on each cell type prior to testing phages. Anti-M13 conjugated to biotin (Abcam) was used as a primary antibody, anti-mouse IgG3 kappa monoclonal conjugated to biotin (Abcam) as isotype control and anti-biotin conjugated to PE (Miltenyi Biotec) as secondary antibody. A list of the antibodies is available in Table S3.
Binding of the selected phages on 293T human embryo kidney, CLTH/EGFR WT and CLTH/EGFRvIII cells was characterized by flow cytometry. Approximately 1 × 10^6 293T cells (expressing endogenous levels of EGFR WT) were collected, washed with cold PBS and blocked with 2%w/v milk-PBS (MPBS), rotating for 30 min at 4 °C. […] The blocked phages were then added to the blocked cells and incubated rotating for 1 h at 4 °C. After centrifugation at 500g for 3 min, the supernatant containing non-bound phages was collected. This step allowed the removal of phages that interacted with this EGFR negative cell line (i.e. not an EGFR-specific binding). The supernatant was then used to resuspend transfected cells washed beforehand (CLTH/EGFR WT expressing EGFR WT and CLTH/EGFRvIII expressing EGFRvIII). Treated cells were incubated for 1 h at 4 °C, collected by centrifugation and washed two times with PBS at pH 7.4. Cells were stained with Viobility™ 405/520 fixable dye (Miltenyi Biotec) as a viability marker. Cells were analyzed by flow cytometry on a MACSQuant Analyser 16 (Miltenyi Biotec) using the MACS Quantify software to acquire and process the data. Viobility™ 405/520 fixable dye was excited at 405 nm and fluorescence was collected with the 525/50 nm filter. PE was excited at 488 nm and fluorescence was collected with the 579/34 nm filter. Viable cells were gated, and PE fluorescence intensity was recorded.

CLTH/EGFRvIII cells [4] = assay: Flow cytometry cellular binding of FITC-Ahx-peptides, EGFRvIII cells; format: cell-based, human; details: for Normalized MFI at 10 µM, vIII: EGFRvIII cells, 10 µM FITC-Ahx-peptide, 0.2% DMSO, MFI minus blank cells divided by spectrofluorometer correction factor; for Normalized MFI ratio vIII/WT from 3 different concentrations, Mean: EGFRvIII over EGFR WT cell line, mean of ratios at 1, 5 and 10 µM
Excerpt: Since FITC fluorescence can be impacted by the nature of the amino acids in the peptide sequence and since the conjugation rate of FITC in the peptide synthesis can fluctuate, it was needed to measure a correction factor according to the fluorescence intensity of each peptide. As flow cytometry cannot analyze fluorescence of small molecules, a spectrofluorometer was used in similar conditions (excitation and emission) to the flow cytometry conditions. […] Fluorescence intensities at 525 nm of the FITC-Ahx-peptides in PBS were measured using a Varioskan plate reader (Thermo Scientific) and the SkanIt Software 5.0. Samples with concentrations between at 0.625, 1.25, 2.5, 5, 10 and 20 µM were prepared in triplicates using stock solutions of peptides in DMSO at 5 mM. Samples (100 µL) were analyzed in a 96-well plate using the following conditions: temperature of 25 °C, excitation wavelength at 490 nm, excitation bandwidth of 5 nm, emission wavelength at 525 nm, by step of 1 nm, measurement time 100 ms, and upper lens. Linear regressions were determined for each peptide. The correction factor was determined by dividing each slope by the arbitrary value 100 and was used to normalize the MFI obtained by flow cytometry.

CLTH/EGFR WT cells [5] = assay: Flow cytometry binding of phage-displayed peptides, EGFR WT cells; format: cell-based, human; details: phage-displayed peptide (M13), 1 h at 4 °C
Protocol: as §2, with “Anti-M13 conjugated to biotin (Abcam) was used as a primary antibody, anti-mouse IgG3 kappa monoclonal conjugated to biotin (Abcam) as isotype control and anti-biotin conjugated to PE (Miltenyi Biotec) as secondary antibody. A list of the antibodies is available in Table S3.” left out
(§3) Binding of the selected phages on 293T human embryo kidney, CLTH/EGFR WT and CLTH/EGFRvIII cells was characterized by flow cytometry. […] Cells were analyzed by flow cytometry on a MACSQuant Analyser 16 (Miltenyi Biotec) using the MACS Quantify software to acquire and process the data. Viobility™ 405/520 fixable dye was excited at 405 nm and fluorescence was collected with the 525/50 nm filter. PE was excited at 488 nm and fluorescence was collected with the 579/34 nm filter. Viable cells were gated, and PE fluorescence intensity was recorded.

293T cells [6] = assay: Flow cytometry binding of phage-displayed peptides, 293T cells; format: cell-based, human; details: phage-displayed peptide (M13), 1 h at 4 °C
Protocol: as §2, with “Anti-M13 conjugated to biotin (Abcam) was used as a primary antibody, anti-mouse IgG3 kappa monoclonal conjugated to biotin (Abcam) as isotype control and anti-biotin conjugated to PE (Miltenyi Biotec) as secondary antibody. A list of the antibodies is available in Table S3.” left out
as §3

EGFR WT = details: prior art; cited from earlier work
Excerpt: Two short peptides intended for EGFR targeting of tumor cells have been described in the prior art.

[7] = molecular target: epidermal growth factor tyrosine kinase receptor mutation variant III (EGFRvIII) on CLTH/EGFRvIII cells (human) (UniProt P00533); assay: flow cytometry on cells; FITC-Ahx-peptides at 1, 5 or 10 µM (0.2% DMSO) on plated 293T, CLTH/EGFR WT and CLTH/EGFRvIII cells, 20 min at RT; FITC MFI of viable cells, normalised by blank cells and a spectrofluorometer correction factor

## FALGEA-NH2 [FALGEA]
EGFRvIII
  Kd: 3.7 µM

## FITC-Ahx-VLGREEWSTSYW-CONH2
CLTH/EGFR WT cells [1]
  Normalized MFI at 10 µM, WT: 4.0
293T cells [2]
  Normalized MFI at 10 µM, 293T: 5.1

## NESGITRIALQD [top peptide selected from the NGS data analysis]
CLTH/EGFRvIII cells [3]
  specific binding of phage-displayed peptide to EGFRvIII cells (PE fluorescence): did not show a specific binding

## NPIVRSAEDGQL [top peptide selected from the NGS data analysis]
CLTH/EGFRvIII cells [3]
  specific binding of phage-displayed peptide to EGFRvIII cells (PE fluorescence): did not show a specific binding

## VLGREEWSTSYW [novel 12-mer peptide ligand of EGFRvIII selected by phage display]
CLTH/EGFRvIII cells [3]
  specific binding of phage-displayed peptide to EGFRvIII cells (PE fluorescence): appeared to show specific binding to the EGFRvIII cells compared to the EGFR WT and the parental cell
CLTH/EGFRvIII cells [4]; FITC-Ahx-peptide, 20 min at RT, flow cytometry
  cellular binding to EGFRvIII cells, qualitative: A shift of fluorescence was observed for the VLGREEWSTSYW peptide on EGFRvIII compared to 293T and EGFR WT cell lines; also recorded: much higher for VLGREEWSTSYW compared to the FALGEA control; also recorded: binds to EGFRvIII cells with high efficiency; also recorded: greater affinity in cell surface binding experiments; also recorded: weaker signal with the free C-terminal FITC labeled peptide compared to the phage displayed format of the same peptide
CLTH/EGFRvIII cells [4]; FITC-Ahx-peptide, flow cytometry, MFI ratio vIII/WT at 1, 5, 10 µM
  specificity for EGFRvIII cells versus EGFR WT cells, qualitative: shows the specificity to EGFRvIII versus EGFR WT for VLGREEWSTSYW compared to the control peptide YHWYGYTPENVI; also recorded: good specificity compared to EGFR WT cells; also recorded: better selectivity to EGFRvIII cells than to EGFR WT cells compared to FALGEA
293T cells [2]; FITC-Ahx-peptide, flow cytometry
  non-specific interactions (293T cell binding), qualitative: minimized for VLGREEWSTSYW compared to the YHWYGYTPENVI control; also recorded: less nonspecific interaction (293T cells); also recorded: significantly less nonspecific cellular binding

## VLGREEWSTSYW-M13
CLTH/EGFRvIII cells [3]
  specific binding of phage-displayed peptide to EGFRvIII cells (PE fluorescence): showed a specific binding to EGFRvIII
CLTH/EGFR WT cells [5]
  difference in fluorescence intensity, anti-M13 vs secondary-only antibody, EGFR WT cells: no significant difference in these fluorescence intensities
293T cells [6]
  difference in fluorescence intensity, anti-M13 vs secondary-only antibody, 293T cells: no significant difference in these fluorescence intensities

## YHWYGYTPENVI
EGFR WT
  reported binding to EGFR WT, qualitative (YHWYGYTPENVI): proven to bind to EGFR WT

## {FITC-Ahx}-FALGEA-NH2 (SMILES CC(C)C[C@H](NC(=O)[C@H](C)NC(=O)[C@H](Cc1ccccc1)NC(=O)CCCCCNC(=S)Nc1ccc2c(c1)C(=O)OC21c2ccc(O)cc2Oc2cc(O)ccc21)C(=O)NCC(=O)N[C@@H](CCC(=O)O)C(=O)N[C@@H](C)C(N)=O) [FALGEA control peptide with FITC-Ahx tag at the N-terminus, reference compound]
CLTH/EGFRvIII cells [4]; 20 min at RT
  Normalized MFI at 10 µM, vIII: 1.8
CLTH/EGFRvIII cells [4]
  Normalized MFI ratio vIII/WT from 3 different concentrations, Mean: 2.50
CLTH/EGFR WT cells [1]
  Normalized MFI at 10 µM, WT: 0.7
293T cells [2]
  Normalized MFI at 10 µM, 293T: 0.9

## {FITC-Ahx}-YHWYGYTPENVI-NH2 (SMILES CC[C@H](C)[C@H](NC(=O)[C@@H](NC(=O)[C@H](CC(N)=O)NC(=O)[C@H](CCC(=O)O)NC(=O)[C@@H]1CCCN1C(=O)[C@@H](NC(=O)[C@H](Cc1ccc(O)cc1)NC(=O)CNC(=O)[C@H](Cc1ccc(O)cc1)NC(=O)[C@H](Cc1c[nH]c2ccccc12)NC(=O)[C@H](Cc1c[nH]cn1)NC(=O)[C@H](Cc1ccc(O)cc1)NC(=O)CCCCCNC(=S)Nc1ccc2c(c1)C(=O)OC21c2ccc(O)cc2Oc2cc(O)ccc21)[C@@H](C)O)C(C)C)C(N)=O) [reference compound]
CLTH/EGFRvIII cells [4]; 20 min at RT
  Normalized MFI at 10 µM, vIII: 9.7
CLTH/EGFRvIII cells [4]
  Normalized MFI ratio vIII/WT from 3 different concentrations, Mean: 1.80
CLTH/EGFR WT cells [1]
  Normalized MFI at 10 µM, WT: 4.5
293T cells [2]
  Normalized MFI at 10 µM, 293T: 7.6

B1: FITC-Ahx-FALGEA-CONH2 (peptide)
peptide: {FITC-Ahx}-FALGEA-NH2
SMILES: CC(C)C[C@H](NC(=O)[C@H](C)NC(=O)[C@H](Cc1ccccc1)NC(=O)CCCCCNC(=S)Nc1ccc2c(c1)C(=O)OC21c2ccc(O)cc2Oc2cc(O)ccc21)C(=O)NCC(=O)N[C@@H](CCC(=O)O)C(=O)N[C@@H](C)C(N)=O
[7]
  normalized MFI at 10 µM: 1.8
  normalized MFI ratio vIII/WT from 3 different concentrations (mean): 2.5
